The target in assay [1] is human GluN1/GluN2B NMDA receptors (Homo sapiens (Human), UniProt Q05586+Q13224). Description: Cell-based calcium flux (FLIPR) assay on cloned human NR1/NR2B ion channels expressed in mammalian cells. The note with it: standard assay, glutamate ~EC40, 10 μM glycine. As for the experimental part: (§1) Effects of Test Articles on Cloned Human NR1/NR2B Ion Channels Expressed in Mammalian Cells
(§2) NMDA receptors are ion channels that are highly permeable to Ca^2+ ions, rendering it possible to monitor NMDA receptor function using cell-based calcium flux assay. In this assay, co-agonists glutamate and glycine are added to cells heterologously expressing human GluN1/GluN2B NMDA receptors to initiate cellular Ca^2+ influx. The time course of the changes in intracellular calcium is measured using a fluorescent dye and a FLIPR (Fluorometric Imaging Plate Reader) device.
(§3) Twenty four hours before measurements, the expression of the NMDA receptors in the stable cell line is induced with Tet-On inducible system in the presence of a non-selective NMDA receptor blocker. On the day of the experiment, cell culture media is carefully washed and the cells are loaded with Calcium 5 Dye Kit (Molecular Devices) in dye loading buffer containing 137 mM NaCl, 4 mM KCl, 2 mM CaCl2), 0.5 mM MgCl2(standard assay) or 1.5 mM MgCl2 (HTS assay), 10 mM HEPES and 5 mM D-glucose; pH 7.4. After 1 h incubation at the room temperature, the dye is washed away with the assay buffer (137 mM NaCl (standard assay) or 150 mM (HTS assay), 4 mM KCl (standard assay) or 3 mM (HTS assay), 2 mM CaCl2), 0.01 mM EDTA, 10 mM HEPES and 5 mM D-glucose; pH 7.4) In the FLIPR TETRA reader, various concentrations of the test compounds are added to the cells for 5 min while fluorescence is monitored to detect potential agonist activity. Next, co-agonists, glutamate and glycine are added for another 5 minutes. The concentration of glutamate corresponding to ˜EC40 (standard assay) or EC40 (HTS assay) is used to maximize the assay's signal window and ability to detect NMDA receptor antagonists and negative allosteric modulators. A saturating concentration (10 μM) of glycine is also present in the assay. A non-selective NMDA receptor antagonist, (+)MK-801 is used as a positive control for antagonist activity. The fluorescent signal in the presence of test compounds is quantified and normalized to the signal defined by the appropriate control wells.
(A change in cytosolic calcium serves as a functional read-out for many receptors and channels.)

For assay [2], the target named is human GluN1/GluN2B NMDA receptors (Homo sapiens (Human), UniProt Q13224). The assay is described as above. The note with it: standard assay, glutamate ~EC40, 10 μM glycine. As for the experimental part: as §1, §2, §3
human GluN1/GluN2B NMDA receptors (Homo sapiens (Human), UniProt Q13224), sequence (Q13224 27-1484, other chains not shown): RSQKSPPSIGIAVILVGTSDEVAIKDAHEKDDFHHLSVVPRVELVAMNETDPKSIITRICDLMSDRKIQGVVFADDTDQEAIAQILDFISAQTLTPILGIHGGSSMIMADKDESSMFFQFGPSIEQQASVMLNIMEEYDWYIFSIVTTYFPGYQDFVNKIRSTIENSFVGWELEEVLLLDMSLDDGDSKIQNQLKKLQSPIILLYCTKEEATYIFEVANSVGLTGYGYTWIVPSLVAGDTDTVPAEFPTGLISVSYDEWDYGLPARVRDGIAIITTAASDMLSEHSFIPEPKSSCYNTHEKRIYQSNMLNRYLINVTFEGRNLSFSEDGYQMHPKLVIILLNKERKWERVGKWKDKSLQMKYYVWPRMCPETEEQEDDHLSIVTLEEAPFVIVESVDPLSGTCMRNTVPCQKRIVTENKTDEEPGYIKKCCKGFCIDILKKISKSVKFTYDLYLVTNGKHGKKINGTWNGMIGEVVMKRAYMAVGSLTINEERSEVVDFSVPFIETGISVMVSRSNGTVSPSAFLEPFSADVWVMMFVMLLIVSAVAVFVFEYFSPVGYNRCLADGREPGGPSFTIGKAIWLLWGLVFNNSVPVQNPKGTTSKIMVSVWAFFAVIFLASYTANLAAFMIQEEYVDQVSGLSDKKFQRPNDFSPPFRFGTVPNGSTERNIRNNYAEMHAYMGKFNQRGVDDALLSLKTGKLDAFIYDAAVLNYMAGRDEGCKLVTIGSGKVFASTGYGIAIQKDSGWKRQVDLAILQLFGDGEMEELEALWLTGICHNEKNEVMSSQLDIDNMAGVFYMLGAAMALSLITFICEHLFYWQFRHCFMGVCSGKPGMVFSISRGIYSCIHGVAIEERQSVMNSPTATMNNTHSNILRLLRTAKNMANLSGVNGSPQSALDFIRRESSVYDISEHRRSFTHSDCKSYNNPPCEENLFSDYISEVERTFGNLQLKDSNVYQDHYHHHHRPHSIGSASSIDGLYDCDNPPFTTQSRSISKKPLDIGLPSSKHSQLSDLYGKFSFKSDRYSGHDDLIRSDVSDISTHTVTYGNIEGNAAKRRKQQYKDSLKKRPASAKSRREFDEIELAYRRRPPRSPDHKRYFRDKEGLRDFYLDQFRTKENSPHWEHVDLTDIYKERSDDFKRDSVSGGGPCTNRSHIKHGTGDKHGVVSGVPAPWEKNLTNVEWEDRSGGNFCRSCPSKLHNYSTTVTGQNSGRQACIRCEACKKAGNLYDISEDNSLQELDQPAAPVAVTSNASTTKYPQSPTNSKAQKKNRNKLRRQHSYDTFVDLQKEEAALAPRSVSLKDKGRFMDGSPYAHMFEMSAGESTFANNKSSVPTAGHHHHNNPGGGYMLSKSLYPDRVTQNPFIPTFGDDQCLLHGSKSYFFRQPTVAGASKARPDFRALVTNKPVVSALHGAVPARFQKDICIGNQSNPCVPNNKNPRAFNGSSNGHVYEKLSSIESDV

Where only a bound is given, the exact number is not on record here.

human GluN1/GluN2B NMDA receptors (Homo sapiens (Human), UniProt Q05586+Q13224), sequence (Q13224 27-1484, other chains not shown): as above

On to `CCC(=O)Cn1ncc2ncc(-c3ccc(F)c(C(F)F)c3)nc21` [Example 1, 1-[6-[3-(Difluoromethyl)-4-fluoro-phenyl]pyrazolo[3,4-b]pyrazin-1-yl]butan-2-one], for which the IC50 in assay [1] was 22 nM. Still for that read-out and setting: to `O=C(Cn1ncc2ncc(-c3ccc(Cl)c(OC(F)F)c3)nc21)C1CC1` [Example 2, 2-[6-[4-Chloro-3-(difluoromethoxy)phenyl]pyrazolo[3,4-b]pyrazin-1-yl]-1-cyclopropyl-ethanone] belongs 81 nM. On the same count and under the same terms, to `CN(C)C(=O)Cn1ncc2ncc(-c3ccc(C(F)(F)F)s3)nc21` [Example 3, N,N-Dimethyl-2-[6-[5-(trifluoromethyl)-2-thienyl]pyrazolo[3,4-b]pyrazin-1-yl]acetamide] belongs 581 nM; to `Cc1cccc(-c2cnc3cnn(CC(=O)N(C)C)c3n2)c1` [Example 4, N,N-Dimethyl-2-[6-(m-tolyl)pyrazolo[3,4-b]pyrazin-1-yl]acetamide], 410 nM. Same read-out and setting: in the case of `CN(C)C(=O)Cn1ncc2ncc(-c3ccc(Cl)c(F)c3)nc21` [Example 5, 2-[6-(4-Chloro-3-fluoro-phenyl)pyrazolo[3,4-b]pyrazin-1-yl]-N,N-dimethyl-acetamide] it was 827 nM; in that of `Cc1ccc(-c2cnc3cnn(CC(=O)N(C)C)c3n2)cc1F` [Example 6, 2-[6-(3-Fluoro-4-methyl-phenyl)pyrazolo[3,4-b]pyrazin-1-yl]-N,N-dimethyl-acetamide], 916 nM. Turning to `CN(C)C(=O)Cn1nc(F)c2ncc(-c3ccc(F)c(C(F)F)c3)nc21` [Example 11, 2-[6-[3-(Difluoromethyl)-4-fluoro-phenyl]-3-fluoro-pyrazolo[3,4-b]pyrazin-1-yl]-N,N-dimethyl-acetamide], in assay [1], the IC50 stood at 59 nM. Regarding `CN(C)C(=O)Cn1ncc2ncc(-c3ccc(F)c(OC(F)F)c3)nc21` [Example 16, 2-[6-[3-(Difluoromethoxy)-4-fluoro-phenyl]pyrazolo[3,4-b]pyrazin-1-yl]-N,N-dimethyl-acetamide], in assay [1], the IC50 worked out at 72 nM. Consider `CN(C)C(=O)Cn1ncc2ncc(-c3ccc(Cl)c(OC(F)F)c3)nc21` [Example 18, 2-[6-[4-Chloro-3-(difluoromethoxy)phenyl]pyrazolo[3,4-b]pyrazin-1-yl]-N,N-dimethyl-acetamide], for which the concentration for half-maximal inhibition (IC50) in assay [1] came to 64 nM. On the same count and under the same terms, to `Cc1c(F)cc(-c2cnc3cnn(CC(=O)N(C)C)c3n2)cc1F` [Example 20, 2-[6-(3,5-Difluoro-4-methyl-phenyl)pyrazolo[3,4-b]pyrazin-1-yl]-N,N-dimethyl-acetamide] belongs 907 nM; to `CN(C)C(=O)Cn1ncc2ncc(-c3cc(F)c(F)c(F)c3)nc21` [Example 22, N,N-Dimethyl-2-[6-(3,4,5-trifluorophenyl)pyrazolo[3,4-b]pyrazin-1-yl]acetamide], 489 nM; to `CC(F)(F)c1cc(-c2cnc3cnn(CC(=O)N4CCC4)c3n2)ccc1F` [Example 27, 1-(Azetidin-1-yl)-2-[6-[3-(1,1-difluoroethyl)-4-fluoro-phenyl]pyrazolo[3,4-b]pyrazin-1-yl]ethanone], 126 nM. Take `CC1CN(C(=O)Cn2ncc3ncc(-c4ccc(F)c(C(F)F)c4)nc32)C1` [Example 30, 2-[6-[3-(Difluoromethyl)-4-fluoro-phenyl]pyrazolo[3,4-b]pyrazin-1-yl]-1-(3-methylazetidin-1-yl)ethanone]: the IC50 in assay [1] stood at 122 nM. Consider `CC1CN(C(=O)Cn2ncc3ncc(-c4ccc(F)c(OC(F)F)c4)nc32)C1` [Example 36, 2-[6-[3-(Difluoromethoxy)-4-fluoro-phenyl]pyrazolo[3,4-b]pyrazin-1-yl]-1-(3-methylazetidin-1-yl)ethanone], for which the IC50 in assay [2] was determined as 251 nM. Regarding `CC(F)(F)c1cc(-c2cnc3cnn(CC(=O)N4CCOCC4)c3n2)ccc1Cl` [Example 38, 2-[6-[4-Chloro-3-(1,1-difluoroethyl)phenyl]pyrazolo[3,4-b]pyrazin-1-yl]-1-morpholino-ethanone], the IC50 in assay [2] stood at 1060 nM. In the case of `Cc1nnc(Cn2ncc3ncc(-c4ccc(F)c(C(F)F)c4)nc32)s1` [Example 39, 2-[[6-[3-(Difluoromethyl)-4-fluoro-phenyl]pyrazolo[3,4-b]pyrazin-1-yl]methyl]-5-methyl-1,3,4-thiadiazole], the concentration for half-maximal inhibition (IC50) in assay [2] turned out to be 162 nM. `Cc1nnc(Cn2ncc3ncc(-c4ccc(F)c(C(F)F)c4)nc32)o1` [Example 40, 2-[[6-[3-(Difluoromethyl)-4-fluoro-phenyl]pyrazolo[3,4-b]pyrazin-1-yl]methyl]-5-methyl-1,3,4-oxadiazole]: the IC50 in assay [1] was 158 nM. In the case of `Cc1cc(Cn2ncc3ncc(-c4ccc(F)c(C(F)F)c4)nc32)on1` [Example 41, 5-[[6-[3-(Difluoromethyl)-4-fluoro-phenyl]pyrazolo[3,4-b]pyrazin-1-yl]methyl]-3-methyl-isoxazole], in assay [2], the concentration for half-maximal inhibition (IC50) turned out to be 337 nM. Same read-out and setting: to `Fc1cncc(Cn2ncc3ncc(-c4ccc(F)c(C(F)F)c4)nc32)c1` [Example 42, 6-[3-(Difluoromethyl)-4-fluoro-phenyl]-1-[(5-fluoro-3-pyridyl)methyl]pyrazolo[3,4-b]pyrazine] belongs 79 nM; to `Fc1ccc(-c2cnc3cnn(Cc4cncc(Cl)c4)c3n2)cc1C(F)F` [Example 43, 1-[(5-Chloro-3-pyridyl)methyl]-6-[3-(difluoromethyl)-4-fluoro-phenyl]pyrazolo[3,4-b]pyrazine], 250 nM. On the same count and under the same terms, to `COc1cncc(Cn2ncc3ncc(-c4ccc(F)c(C(F)F)c4)nc32)c1` [Example 44, 6-[3-(Difluoromethyl)-4-fluoro-phenyl]-1-[(5-methoxy-3-pyridyl)methyl]pyrazolo[3,4-b]pyrazine] belongs 165 nM.

With `N#Cc1cncc(Cn2ncc3ncc(-c4ccc(F)c(C(F)F)c4)nc32)c1` [Example 45, 5-[[6-[3-(Difluoromethyl)-4-fluoro-phenyl]pyrazolo[3,4-b]pyrazin-1-yl]methyl]pyridine-3-carbonitrile], the IC50 in assay [1] came to 285 nM.

Turning to `N#Cc1cncc(Cn2nc(F)c3ncc(-c4ccc(F)c(C(F)F)c4)nc32)c1` [Example 46, 5-[[6-[3-(Difluoromethyl)-4-fluoro-phenyl]-3-fluoro-pyrazolo[3,4-b]pyrazin-1-yl]methyl]pyridine-3-carbonitrile], the half-maximal inhibitory concentration (IC50) in assay [2] came to 709 nM. On to `Fc1ccc(-c2cnc3cnn(Cc4cncc(Cl)c4)c3n2)cc1OC(F)F` [Example 47, 1-[(5-Chloro-3-pyridyl)methyl]-6-[3-(difluoromethoxy)-4-fluoro-phenyl]pyrazolo[3,4-b]pyrazine], for which the IC50 in assay [2] is 284 nM.

As to `CN(C)C(=O)Cn1ncc2ncc(-c3ccc(Cl)cc3F)nc21` [Example 48, 2-(6-(4-Chloro-2-fluorophenyl)-1H-pyrazolo[3,4-b]pyrazin-1-yl)-N,N-dimethylacetamide], the IC50 in assay [2] came to 2810 nM. On to `CN(C)C(=O)Cn1ncc2ncc(-c3ccc(OC(F)(F)F)cc3)nc21` [Example 49, N,N-Dimethyl-2-(6-(4-(trifluoromethoxy)phenyl)-1H-pyrazolo[3,4-b]pyrazin-1-yl)acetamide], for which the half-maximal inhibitory concentration (IC50) in assay [2] was 2740 nM.

Take `CN(C)C(=O)Cn1ncc2ncc(-c3cc(F)ccc3F)nc21` [Example 50, 2-(6-(2,5-Difluorophenyl)-1H-pyrazolo[3,4-b]pyrazin-1-yl)-N,N-dimethylacetamide]: in assay [2], the half-maximal inhibitory concentration (IC50) is more than 3000 nM. For the compound `O=C1NCC(Cn2ncc3ncc(-c4ccc(F)c(OC(F)F)c4)nc32)O1` (stereo not drawn) [Example 51, 5-((6-(3-(Difluoromethoxy)-4-fluorophenyl)-1H-pyrazolo[3,4-b]pyrazin-1-yl)methyl)oxazolidin-2-one], the IC50 in assay [1] is more than 3000 nM. In the case of `COc1cncc(Cn2ncc3ncc(-c4ccc(F)c(OC(F)F)c4)nc32)c1` [Example 52, 6-(3-(Difluoromethoxy)-4-fluorophenyl)-1-((5-methoxypyridin-3-yl)methyl)-1H-pyrazolo[3,4-b]pyrazine], the concentration for half-maximal inhibition (IC50) in assay [2] stood at 3770 nM. With `CN(C)C(=O)Cn1ncc2ncc(-c3ccc(C(C)(F)F)cc3)nc21` [Example 53, 2-(6-(4-(1,1-Difluoroethyl)phenyl)-1H-pyrazolo[3,4-b]pyrazin-1-yl)-N,N-dimethylacetamide], the half-inhibitory concentration (IC50) in assay [1] was more than 3000 nM.

As a reminder, the IC50 is the concentration needed to halve the response being measured.
